The source of these data is patent publication US8937091B2 (Japan Science and Technology Agency, priority 2009, dated 2015).

The subject of assay [1] is IICR (IP3 induced calcium release) in CHO cells. As to the kind of experiment: Assay of IICR (IP3 induced calcium release)-inhibiting action. Particulars: for IICR level (percentage of inhibition) / inhibition at 10 µM / inhibition at 30 µM / inhibition at 100 µM: CHO cells, 10 μM ATP; for inhibition at 10 µM / inhibition at 30 µM / inhibition at 100 µM: read-out: IICR level (percentage of inhibition). In kind it is cell-based, Chinese hamster. The gist of the method: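 CHO cell medium replaced with calcium-containing BSS; compound added 1 min later, then 10 μM ATP after a further 2 min. Percent inhibition of the ATP-evoked rise in intracellular calcium determined at each compound concentration.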

The subject of assay [2] is SOCE (store operated calcium entry) in CHO cells. As to the kind of experiment: Assay of SOCE (store operated calcium entry)-inhibiting action. In kind it is cell-based, Chinese hamster. Particulars: Cricetulus griseus, CHO; for inhibition at 10 µM: test compound 10 μmol; for inhibition at 10 µM / inhibition at 30 µM / inhibition at 100 µM: CHO cells, thapsigargin, read-out: SOCE level (percentage of inhibition); for inhibition at 30 µM: test compound 30 μmol; for inhibition at 100 µM: test compound 100 μmol. The gist of the method:
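CHO cells in calcium-free BSS received compound, then 1 μM thapsigargin 2 min later to deplete stores; after 9 min, 2 mM calcium chloride (final) added. Percent inhibition of the rise in intracellular calcium determined at various compound concentrations.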

Where [3] appears, read: Cricetulus griseus, CHO, test compound 10 μmol.
Setting [4] is: Cricetulus griseus, CHO, test compound 30 μmol.
Setting [5] is: Cricetulus griseus, CHO, test compound 100 μmol.

pIC50: −log10 of the molar value.

As to `O=C(CCN(CCO)CCO)c1ccco1` [Example 130, 2-(N-bis-hydroxyethyl)aminoethyl-2-furylketone], the “IICR level (percentage of inhibition)” value in assay [1] (test compound 10 μmol) is on record as 20%. For the same compound, the “IICR level (percentage of inhibition)” value in assay [1] (test compound 30 μmol) was 20%. For the same compound, the “IICR level (percentage of inhibition)” value in assay [1] (test compound 100 μmol) was determined as 50%. Further, in assay [2], the inhibition at 10 µM amounted to 0%, the inhibition at 30 µM was 0% and the inhibition at 100 µM worked out at 0%.

With `CC(C)N(CCO)CC(=O)c1ccccc1` [Example 206, 2-(N-hydroxyethylisopropyl)aminomethylphenylketone], the inhibition at 10 µM in assay [1] (setting [3]) and in assay [2] was 0% in each case. Besides, the inhibition at 30 µM in assay [1] (setting [4]) and in assay [2] was 0% throughout. For the same compound, the inhibition at 100 µM in assay [1] (setting [5]) stood at 40%; in assay [2], 0%.

Turning to `O=C(CCN(CCO)Cc1ccccc1)c1ccc(I)s1` [Example 379, 2-(N-2-hydroxyethyl-N-benzyl)aminoethyl-5-iodo-2-thienylketone], the results for the inhibition at 10 µM in assay [1] (setting [3]) and in assay [2] were 50% and 20%, respectively. For the same compound, the inhibition at 30 µM in assay [1] (setting [4]) amounted to 24%; in assay [2] it was 40%. For the same compound, the inhibition at 100 µM was 46% in assay [1] (setting [5]) and 50% in assay [2].

For the compound `CC(C)(C)N(CCC(=O)c1ccco1)Cc1ccccc1` [Example 121, 2-(N-t-butylbenzyl)aminoethyl-2-furylketone], the inhibition at 10 µM was 10% in assay [1] (setting [3]) and 0% in assay [2]. For the same compound, the inhibition at 30 µM in assay [1] (setting [4]) came out at 50%; in assay [2], 0%. In addition, the inhibition at 100 µM in assay [1] (setting [5]) is 100%; in assay [2], 0%. The negative logarithm of the IC50 (pIC50) in assay [1] (Cricetulus griseus, CHO, Table 1) was 4.52; in assay [2] (Table 1), < 4.00.

`CC(C)(C)N(CCO)CCC(=O)c1ccccn1` [Example 244, 2-(N-t-butyl-2-hydroxyethyl)aminoethyl-2-pyridylketone]: the inhibition at 10 µM in assay [1] (setting [3]) and in assay [2] was 0% throughout. Besides, the inhibition at 30 µM in assay [1] (setting [4]) and in assay [2] was 0% in each case. The inhibition at 100 µM in assay [1] (setting [5]) and in assay [2] was 0% each time.

On to `CN(CCC(=O)c1cccs1)Cc1ccccc1` [Example 125, 2-(N-methylbenzyl)aminoethyl-2-thiophenylketone], for which the inhibition at 10 µM in assay [1] (setting [3]) and in assay [2] was 0% in each case. Besides, the inhibition at 30 µM worked out at 30% in assay [1] (setting [4]) and 0% in assay [2]. Moreover, the inhibition at 100 µM in assay [1] (setting [5]) was 70%; in assay [2] it was 0%.

With `CC(C)(C)N(CCC(=O)c1ccc(C#N)cc1)Cc1ccccc1` [Example 302, 2-(N-t-butylbenzyl)aminoethyl-4-cyanophenylketone], the inhibition at 30 µM in assay [1] (setting [4]) worked out at 90%. In assay [1] (test compound 10 μmol), the “IICR level (percentage of inhibition)” value is 60%. In assay [2], the inhibition at 10 µM was 0%, the inhibition at 30 µM came out at 0% and the inhibition at 100 µM worked out at 20%.

For the compound `CC(CN(C)CCO)C(=O)c1ccc(F)cc1` (stereo not drawn) [Example 163, 2-(N-hydroxyethylmethyl)amino-1-methylethyl-4-fluorophenylketone], the inhibition at 10 µM in assay [1] (setting [3]) and in assay [2] was 0% in each case. In addition, the inhibition at 30 µM in assay [1] (setting [4]) and in assay [2] was 0% in each case. The inhibition at 100 µM was 0% in assay [1] (setting [5]) and 20% in assay [2].

Turning to `CC(C)N(CCO)CCC(=O)c1ccc(Cl)cc1` [Example 311, 2-(N-hydroxyethylisopropyl)aminoethyl-4-chloro-phenylketone], the results for the inhibition at 10 µM in assay [1] (setting [3]) and in assay [2] were 50% and 0%, respectively. Also, the inhibition at 30 µM came to 30% in assay [1] (setting [4]) and 0% in assay [2]. Further, the inhibition at 100 µM in assay [1] (setting [5]) was determined as 50%; in assay [2] it was 10%.

Regarding `CC(C)N(CCC(=O)c1ccc2c(Cl)cccc2c1)Cc1ccccc1` [Example 84, 2-(N-isopropylbenzyl)aminoethyl-5-chloro-2-naphthylketone], the inhibition at 10 µM in assay [1] (setting [3]) turned out to be 90%; in assay [2], 20%. The inhibition at 30 µM in assay [1] (setting [4]) was found to be 100%; in assay [2], 30%. In addition, the inhibition at 100 µM came to 100% in assay [1] (setting [5]) and 70% in assay [2].

On to `CC(C)N(CCO)CCC(=O)c1cc2ccccc2s1` [Example 284, 2-(N-isopropyl-2-hydroxyethyl)aminoethyl-2-benzothienylketone], for which the inhibition at 10 µM in assay [1] (setting [3]) stood at 0%. In addition, the inhibition at 30 µM in assay [1] (setting [4]) and in assay [2] was 0% each time. For the same compound, the inhibition at 100 µM in assay [1] (setting [5]) stood at 40%; in assay [2], 0%.

For `O=C(CCNCCCCNCCCNCCC(=O)c1ccncc1)c1ccncc1` [Example 216, N,N-bis(4-pyrizoylethyl)spermidine], the inhibition at 10 µM in assay [1] (setting [3]) and in assay [2] was 0% throughout. The inhibition at 30 µM in assay [1] (setting [4]) was found to be 0%; in assay [2], 10%. For the same compound, the inhibition at 100 µM amounted to 30% in assay [1] (setting [5]) and 10% in assay [2].

On to `CC(C)(C)N(CCC(=O)c1ccc2c(c1)OCCO2)Cc1ccccc1` [Example 317, 2-(N-benzyl-t-butyl)aminoethyl-5,6-ethylenedioxy-2-phenylketone], for which the inhibition at 10 µM was found to be 90% in assay [1] (setting [3]) and 10% in assay [2]. Also, the results for the inhibition at 30 µM in assay [1] (setting [4]) and in assay [2] were 95% and 10%, respectively. For the same compound, the inhibition at 100 µM in assay [1] (setting [5]) is 100%; in assay [2], 30%.

Take `CCN(CCO)CCC(=O)c1ccc(Br)s1` [Example 331, 2-(N-2-hydroxyethylethyl)aminoethyl-5-bromo-2-thienylketone]: the inhibition at 10 µM in assay [1] (setting [3]) and in assay [2] was 0% each time. For the same compound, the inhibition at 30 µM in assay [1] (setting [4]) and in assay [2] was 10% each time. Moreover, the inhibition at 100 µM in assay [1] (setting [5]) worked out at 70%; in assay [2] it was 20%.

As to `O=C(CCNC(CO)Cc1ccccc1)c1ccc(Br)s1` (stereo not drawn) [Example 357, 2-(N-hydroxy-1-benzylethyl)aminoethyl-5-bromo-2-thienylketone], the inhibition at 10 µM in assay [1] (setting [3]) and in assay [2] was 0% in each case. The inhibition at 30 µM in assay [1] (setting [4]) was 0%; in assay [2] it was 9%. Moreover, the inhibition at 100 µM was determined as 70% in assay [1] (setting [5]) and 47% in assay [2].

With `O=C(CCNc1ccccc1S)c1ccc(Br)s1` [Example 347, 2-(N-2-mercaptophenyl)aminoethyl-5-bromo-2-thienylketone], the inhibition at 10 µM in assay [1] (setting [3]) and in assay [2] was 0% in each case. In addition, the values for the inhibition at 30 µM in assay [1] (setting [4]) and in assay [2] were 20% and 0%, respectively. For the same compound, the inhibition at 100 µM was 50% in assay [1] (setting [5]) and 0% in assay [2].

Consider `O=C(CCNCc1ccccc1)c1ccc(Br)s1` [Example 382, 2-N-benzylaminoethyl-5-bromo-2-thienylketone], for which the inhibition at 10 µM in assay [1] (setting [3]) and in assay [2] was 0% throughout. In addition, the inhibition at 30 µM in assay [1] (setting [4]) and in assay [2] was 10% throughout. Moreover, the inhibition at 100 µM in assay [1] (setting [5]) worked out at 50%; in assay [2], 20%.

Take `COc1ccc(C(=O)CCN(CCO)CCO)cc1` [Example 148, 2-(N-bishydroxyethyl)aminoethyl-4-methoxyphenylketone]: the inhibition at 10 µM in assay [1] (setting [3]) was 20%; in assay [2] it was 0%. For the same compound, the inhibition at 30 µM in assay [1] (setting [4]) came to 30%; in assay [2], 0%. The values for the inhibition at 100 µM in assay [1] (setting [5]) and in assay [2] were 90% and 0%, respectively.

In the case of `CC(C)N(CCC(=O)c1cccs1)Cc1ccccc1` [Example 183, 2-(N-isopropylbenzyl)aminoethyl-2-thiophenylketone], the inhibition at 10 µM in assay [1] (setting [3]) and in assay [2] was 0% in each case. The inhibition at 30 µM in assay [1] (setting [4]) and in assay [2] was 0% each time. Also, the results for the inhibition at 100 µM in assay [1] (setting [5]) and in assay [2] were 50% and 20%, respectively.

On to `Cc1csc(C(=O)CCN(Cc2ccccc2)Cc2ccccc2)c1` [Example 322, 2-(N-dibenzyl)aminoethyl-4-methyl-2-thienylketone], for which the inhibition at 10 µM amounted to 10% in assay [1] (setting [3]) and 0% in assay [2]. Moreover, the values for the inhibition at 30 µM in assay [1] (setting [4]) and in assay [2] were 20% and 10%, respectively. Moreover, the inhibition at 100 µM in assay [1] (setting [5]) was 30%; in assay [2], 20%.

As for `CC(C)(C)N(CCC(=O)c1ccsc1)Cc1ccccc1` [Example 238, 2-(N-benzyl-t-butyl)aminoethyl-3-thiophenylketone], the inhibition at 10 µM in assay [1] (setting [3]) came to 10%; in assay [2], 0%. Besides, the inhibition at 30 µM in assay [1] (setting [4]) and in assay [2] was 0% in each case. The inhibition at 100 µM in assay [1] (setting [5]) and in assay [2] was 0% throughout.

For `O=C(CCN1CCCCC1CO)c1ccncc1` (stereo not drawn) [Example 217], the inhibition at 10 µM in assay [1] (setting [3]) is 0%; in assay [2], 10%. For the same compound, the inhibition at 30 µM in assay [1] (setting [4]) came out at 20%; in assay [2], 0%. The inhibition at 100 µM was 50% in assay [1] (setting [5]) and 20% in assay [2].
